Assay [1] addresses Gonadotropin-releasing hormone receptor (Macaca mulatta). Kind of assay: […] inhibition of monkey Gonadotropin-releasing hormone receptor.
Assay [2] has the same target. The assay is described as follows: […] inhibition of monkey Gonadotropin releasing hormone receptor.

pKi: −log10 of the molar value.

As to `COc1cccc(-c2c(C)n(Cc3c(F)cccc3F)c(=O)n(C[C@H](C)NCc3ccccc3)c2=O)c1F` [3-((S)-2-Benzylamino-propyl)-1-(2,6-difluoro-benzyl)-5-(2-fluoro-3-methoxy-phenyl)-6-methyl-1H-pyrimidine-2,4-dione], the pKi (in general, the Ki on a negative log10 scale, so that one unit is a factor of ten) in assay [1] was 6.26.
Compound `COc1cccc(-c2c(C)n(Cc3c(F)cccc3F)c(=O)n(C[C@@H](C)NCc3nccs3)c2=O)c1F` [1-(2,6-Difluoro-benzyl)-5-(2-fluoro-3-methoxy-phenyl)-6-methyl-3-{(R)-2-[(thiazol-2-ylmethyl)-amino]-propyl}-1H-pyrimidine-2,4-dione] had a pKi in assay [2] of 6.09.
`COc1cccc(-c2c(C)n(Cc3c(F)cccc3F)c(=O)n(C[C@H](C)NCc3sccc3C)c2=O)c1F` [1-(2,6-Difluoro-benzyl)-5-(2-fluoro-3-methoxy-phenyl)-6-methyl-3-{(S)-2-[(3-methyl-thiophen-2-ylmethyl)-amino]-propyl}-1H-pyrimidine-2,4-dione] showed a pKi in assay [1] of 7.06.

The values are drawn from BindingDB's records for doi:10.1021/jm030472z (Neurocrine Biosciences, 2004).
